Assay results published in the supplement of paper PMC11451515.

Tests used:
Assay in all cases: AUC of viability dose-response curve (% viability x log10 dose units); higher = less sensitive
Details in all cases: 48 h
[1] = tested on: NOMO1
In short: (§1)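 In 1536-well plates, leukemia cells adapted to each medium (500 or 1000 cells/well) were exposed for 48 h at 37°C to library compounds in DMSO across 11 threefold doses, 47 μM down to 0.79 nM. Viability was read by CellTiter-Glo One luminescence and normalised per plate to DMSO and cell-free wells. A four-parameter log-logistic fit over log10 doses was integrated by trapezoidal rule. This yielded the area under the curve, with over-full-viability curves scaled and quality-control failures dropped.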

[2] = tested on: P12-Ichikawa
In short: as §1

[3] = tested on: SEM cells
In short: as §1

[4] = RPMI 5 mM glucose + 10% dialyzed FBS

Structure (SMILES) | AUC of viability dose-response curve ([1]; HPLM + 10% dialyzed FBS) | AUC of viability dose-response curve ([1]; RPMI 5 mM glucose + 10% FBS) | AUC of viability dose-response curve [1, 4] | AUC of viability dose-response curve ([2]; HPLM + 10% dialyzed FBS) | AUC of viability dose-response curve ([2]; RPMI 5 mM glucose + 10% FBS) | AUC of viability dose-response curve [2, 4] | AUC of viability dose-response curve ([3]; HPLM + 10% dialyzed FBS) | AUC of viability dose-response curve ([3]; RPMI 5 mM glucose + 10% FBS) | AUC of viability dose-response curve [3, 4]
NCCc1ccc(O)c(O)c1 | 410 | 426 | 429 | 464 | 463 | 474 | 431 | 450 | 449
Cc1nc(N)ncc1-c1nc(N2CCOCC2)c2sc(C(C)(C)O)cc2n1 | 204 | 264 | 285 | 213 | 279 | 276 | 249 | 163 | 220
Oc1ccc2ccccc2c1SSc1c(O)ccc2ccccc12 | 470 | 469 | 469 | 474 | 464 | 463 | 453 | 450 | 417
COc1cc(Cl)cn2c(-c3cccc(NC4CNC4)n3)cnc12 | 472 | 468 | 454 | 459 | 458 | 464 | 453 | 442 | 440
CN(C)CCOc1ccc(/C(=C(/CCCl)c2ccccc2)c2ccccc2)cc1 | 441 | 437 | 448 | 410 | 393 | 399 | 362 | 344 | 369
Cc1cccc2c1CC[C@H](CN1CCC(c3c(Cl)cccc3Cl)CC1)C[C@@H]2O | 453 | 424 | 413 | 472 | 425 | 439 | 474 | 437 | 441
Clc1ccccc1C(c1ccccc1)(c1ccccc1)n1ccnc1 | 451 | 443 | 468 | 448 | 426 | 448 | 425 | 416 | 412
N[C@@H](Cc1ccc(O)c(O)c1)C(=O)O | 459 | 475 | 456 | 471 | 454 | 466 | 456 | 433 | 458
CC(S)C(=O)NCC(=O)O (stereo unspecified) | 464 | 440 | 469 | 471 | 476 | 472 | 438 | 432 | 417
